For this data set the following is noted: human, 0 h.

Consider `O=[N+]([O-])OCC(CO[N+](=O)[O-])O[N+](=O)[O-]` [Nitroglycerin, nitroglycerin], for which the “Nitroglycerin Cumulative Flux” value was determined as 0 μg/cm^2.

Source of the values: patent US8900194B2, “Microneedle devices and microneedle delivery apparatus” (3M Innovative Properties Company, priority 2002, dated 2014).
